Results published in ChEMBL document CHEMBL1201862, “PubChem BioAssay data set” (2004).
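Tested at 5 concentrations; 48 h exposure; 96-well plates; endpoints linearly interpolated, else capped at highest concentration. GI50 = concentration required for 50% inhibition of growth.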 Active and inactive are the calls of the source. No stated cut-off is given here; in the data, active = GI50 up to about 1.1 µM and inactive = higher.

Legend:
Assay in all cases: NCI-60 cell line screen, 48 h
[1] = system: DMS-273
[2] = system: HOP-18
[3] = system: M19-MEL
[4] = system: SNB-78
[5] = system: XF498
[6] = system: DLD-1
[7] = system: DMS-114
[8] = system: KM-20L2
[9] = system: RXF 631

`O=C(NN1C(=O)C(Cl)C1c1cccc(Cl)c1)c1ccccc1O` (centres undefined) was tested, and the GI50 [1] was > 100 µM (inactive), the GI50 [2] was 0.167 µM (active) and the GI50 [3] was > 100 µM (inactive). The GI50 [4] was > 100 µM (inactive) and the GI50 [5] was 15.3 µM (inactive).

`C=C(C)C1CC=C(C)CC1` (centres undefined) was tested, and the GI50 [6] was 885 µM (inactive), the GI50 [7] was 891 µM (inactive) and the GI50 [1] was 993 µM (inactive). The GI50 [2] was > 100 µM (inactive), the GI50 [8] was 904 µM (inactive) and the GI50 [3] was 879 µM (inactive). The GI50 [9] was 908 µM (inactive), the GI50 [4] was 986 µM (inactive) and the GI50 [5] was 993 µM (inactive).

In the case of `O=C(CC(=O)c1ccccc1)C(=O)NC12CC3CC(CC(C3)C1)C2`, the GI50 [6] is reported as > 47.5 µM (inactive), the GI50 [7] is reported as > 42.4 µM (inactive) and the GI50 [1] is reported as > 47 µM (inactive). For the same compound, the GI50 [2] was > 100 µM (inactive), the GI50 [8] was > 75.7 µM (inactive) and the GI50 [3] was > 100 µM (inactive). The GI50 [4] was > 100 µM (inactive) and the GI50 [5] was > 100 µM (inactive).

In the case of `CC(=O)/C(=C\c1ccccc1)C(=O)Nc1ccccc1`, the GI50 [6] is reported as > 100 µM (inactive), the GI50 [7] is reported as > 100 µM (inactive) and the GI50 [2] is reported as > 100 µM (inactive). The GI50 [3] was > 100 µM (inactive), the GI50 [9] was > 100 µM (inactive) and the GI50 [4] was > 100 µM (inactive). For the same compound, the GI50 [5] was > 100 µM (inactive).

For `Cc1cccc(N2C(=O)C(Cl)=C(Cl)C2=O)c1`, the GI50 [6] was > 43 µM (inactive), the GI50 [7] was > 67.5 µM (inactive) and the GI50 [1] was > 100 µM (inactive). For the same compound, the GI50 [2] was > 73.6 µM (inactive), the GI50 [8] was > 100 µM (inactive) and the GI50 [3] was > 91.2 µM (inactive). For the same compound, the GI50 [4] was > 100 µM (inactive) and the GI50 [5] was 0.661 µM (active).

For `COc1ccc2c(c1)[n+]([O-])c(-c1ccc(Cl)c(Cl)c1)c(N)[n+]2[O-]`, the GI50 [6] was 33.9 µM (inactive), the GI50 [7] was 16.3 µM (inactive) and the GI50 [1] was 23.8 µM (inactive). For the same compound, the GI50 [2] was 24.3 µM (inactive), the GI50 [8] was 32.3 µM (inactive) and the GI50 [3] was 28.8 µM (inactive). The GI50 [9] was 21.3 µM (inactive) and the GI50 [4] was 53.6 µM (inactive).

In the case of `N=C(N)NS(=O)(=O)c1ccc(NC(=O)c2cccc3c(N)c4ccccc4nc23)cc1`, the GI50 [6] is reported as > 100 µM (inactive), the GI50 [7] is reported as 61.2 µM (inactive) and the GI50 [1] is reported as > 100 µM (inactive). For the same compound, the GI50 [8] was 68.2 µM (inactive), the GI50 [3] was > 100 µM (inactive) and the GI50 [9] was > 100 µM (inactive). The GI50 [4] was > 100 µM (inactive) and the GI50 [5] was > 100 µM (inactive).

In the case of `COc1cc2cnc3c4cc(O)ccc4ccc3c2cc1OC`, the GI50 [6] is reported as > 100 µM (inactive), the GI50 [7] is reported as 6.3 µM (inactive) and the GI50 [2] is reported as 34.8 µM (inactive). The GI50 [8] was > 100 µM (inactive) and the GI50 [3] was 24.7 µM (inactive).

For `CCCCCCCCCCCCCS(=O)(=O)NCC(N)=O`, the GI50 [6] was > 100 µM (inactive), the GI50 [7] was > 100 µM (inactive) and the GI50 [2] was > 100 µM (inactive). For the same compound, the GI50 [8] was > 100 µM (inactive), the GI50 [3] was > 100 µM (inactive) and the GI50 [4] was > 100 µM (inactive). The GI50 [5] was 69.8 µM (inactive).

`Cc1c(N)nc([C@H](CC(N)=O)NC[C@H](N)C(N)=O)nc1C(=O)N[C@H](C(=O)N[C@H](C)[C@@H](O)[C@H](C)C(=O)N[C@H](C(=O)NCCc1nc(-c2nc(C(=O)NCCC[S+](C)C)cs2)cs1)[C@@H](C)O)C(OC1OC(CO)C(O)C(O)C1OC1OC(CO)C(O)C(OC(N)=O)C1O)c1c[nH]cn1` (some centres undefined) was tested, and the GI50 [6] was 14.1 µM (inactive), the GI50 [7] was 0.438 µM (active) and the GI50 [1] was 0.12 µM (active). For the same compound, the GI50 [2] was 4.27 µM (inactive), the GI50 [8] was 19.9 µM (inactive) and the GI50 [3] was 8.28 µM (inactive). The GI50 [9] was 0.608 µM (active), the GI50 [4] was 20.8 µM (inactive) and the GI50 [5] was 0.776 µM (active).

With `COC(=N)/C(=C1\OC(=N)C(c2ccc(Cl)cc2)=C1O)c1ccc(Cl)cc1` the GI50 [6] was > 100 µM (inactive), the GI50 [7] was > 100 µM (inactive) and the GI50 [1] was > 100 µM (inactive). For the same compound, the GI50 [2] was > 100 µM (inactive), the GI50 [8] was > 100 µM (inactive) and the GI50 [3] was > 100 µM (inactive). For the same compound, the GI50 [4] was > 100 µM (inactive) and the GI50 [5] was > 100 µM (inactive).

With `CCSc1nc2n(c(=S)n1)CCN2C` the GI50 [7] was 18.7 µM (inactive), the GI50 [1] was 18.1 µM (inactive) and the GI50 [8] was 20 µM (inactive). The GI50 [3] was 13.5 µM (inactive).

For `COc1ccccc1N1C(=O)C2c3[nH]c4ccccc4c3C3CCC(C(C)(C)C)CC3C2C1=O` (centres undefined), the GI50 [6] was > 100 µM (inactive), the GI50 [7] was > 100 µM (inactive) and the GI50 [1] was > 100 µM (inactive). For the same compound, the GI50 [2] was > 100 µM (inactive), the GI50 [8] was > 100 µM (inactive) and the GI50 [3] was > 100 µM (inactive). For the same compound, the GI50 [4] was > 100 µM (inactive) and the GI50 [5] was > 100 µM (inactive).

In the case of `Cc1c(N)nc(C(CC(N)=O)NCC(N)C(N)=O)nc1C(=O)NC(C(=O)NC(C)C(O)C(C)C(=O)NC(C(=O)NCCc1nc(-c2nc(C(=O)NCCCNC(C)c3ccccc3)cs2)cs1)C(C)O)C(OC1OC(CO)C(O)C(O)C1OC1OC(CO)C(O)C(OC(N)=O)C1O)c1c[nH]cn1` (centres undefined), the GI50 [6] is reported as 32.8 µM (inactive), the GI50 [7] is reported as 0.59 µM (active) and the GI50 [1] is reported as 0.0752 µM (active). For the same compound, the GI50 [2] was 21.3 µM (inactive), the GI50 [8] was 40.4 µM (inactive) and the GI50 [3] was 15 µM (inactive). The GI50 [4] was > 50 µM (inactive) and the GI50 [5] was 0.973 µM (active).

For `O=C1NC(=O)/C(=N\c2cccc3c(=O)[nH][nH]c(=O)c23)C(c2nc3ccccc3s2)C1=O` (centres undefined), the GI50 [6] was > 100 µM (inactive), the GI50 [7] was > 100 µM (inactive) and the GI50 [1] was > 100 µM (inactive). For the same compound, the GI50 [2] was > 100 µM (inactive), the GI50 [8] was > 100 µM (inactive) and the GI50 [3] was > 100 µM (inactive). For the same compound, the GI50 [9] was > 100 µM (inactive), the GI50 [4] was > 100 µM (inactive) and the GI50 [5] was 32.1 µM (inactive).

In the case of `CC1(C)OCN(c2ccc(Cl)cc2)Cn2c1nc1ccccc12`, the GI50 [6] is reported as 7.6 µM (inactive), the GI50 [7] is reported as 21.2 µM (inactive) and the GI50 [1] is reported as 1.68 µM (inactive). The GI50 [2] was > 100 µM (inactive), the GI50 [8] was 1.82 µM (inactive) and the GI50 [3] was 71 µM (inactive). For the same compound, the GI50 [4] was > 100 µM (inactive) and the GI50 [5] was 82.4 µM (inactive).

With `O=C(CC(=O)N1N=C(n2ccc3ccccc32)CC1c1ccccc1)Nc1cccc(Cl)c1` (centres undefined) the GI50 [6] was > 100 µM (inactive), the GI50 [1] was > 100 µM (inactive) and the GI50 [2] was > 100 µM (inactive). For the same compound, the GI50 [8] was > 100 µM (inactive), the GI50 [3] was > 100 µM (inactive) and the GI50 [9] was > 100 µM (inactive). For the same compound, the GI50 [4] was > 100 µM (inactive).

With `CC1=C(C(=O)CC(=O)C(=O)Nc2cccc(C)c2C)Sc2ccccc2N1` the GI50 [6] was > 100 µM (inactive), the GI50 [7] was > 100 µM (inactive) and the GI50 [2] was > 100 µM (inactive). The GI50 [3] was > 100 µM (inactive) and the GI50 [4] was > 100 µM (inactive).

In the case of `O=C1CC(C2(O)C(=O)Nc3ccc([N+](=O)[O-])cc32)c2ccccc21` (centres undefined), the GI50 [6] is reported as 40 µM (inactive), the GI50 [7] is reported as 9.48 µM (inactive) and the GI50 [1] is reported as 20.9 µM (inactive). For the same compound, the GI50 [2] was 28.1 µM (inactive), the GI50 [3] was 29.2 µM (inactive) and the GI50 [9] was 16.4 µM (inactive). The GI50 [4] was 31.6 µM (inactive).

With `COc1ccc(OC)c(NC(=O)C2=C(C)NC(C)=C(C(=O)Nc3cc(OC)ccc3OC)C2c2ccccc2)c1` the GI50 [6] was 21.7 µM (inactive), the GI50 [7] was 96.2 µM (inactive) and the GI50 [1] was > 100 µM (inactive). For the same compound, the GI50 [2] was 1.04 µM (active), the GI50 [8] was 86.5 µM (inactive) and the GI50 [3] was > 100 µM (inactive). For the same compound, the GI50 [4] was > 100 µM (inactive).

`COC(=O)C1[C@H](c2cc(OC)c(OC)c(OC)c2)OC(=O)C1(C(=O)OC)C(=O)c1ccc2c(c1)OCO2` (some centres undefined) was tested, and the GI50 [6] was > 100 µM (inactive), the GI50 [7] was > 100 µM (inactive) and the GI50 [1] was > 100 µM (inactive). The GI50 [8] was > 100 µM (inactive), the GI50 [3] was > 100 µM (inactive) and the GI50 [4] was > 100 µM (inactive). The GI50 [5] was > 100 µM (inactive).

`Cc1c2ccncc2c(C)c2c1[nH]c1ccc(OCC(F)(F)F)cc12` was tested, and the GI50 [6] was 1.57 µM (inactive), the GI50 [7] was 1.84 µM (inactive) and the GI50 [1] was 0.82 µM (active). For the same compound, the GI50 [8] was 1.47 µM (inactive), the GI50 [3] was 1.84 µM (inactive) and the GI50 [9] was 1.57 µM (inactive). For the same compound, the GI50 [4] was 2.92 µM (inactive) and the GI50 [5] was 1.61 µM (inactive).

For `COc1cc2c[n+](C)c3c4cc5c(cc4ccc3c2cc1OC)OCO5` [NITIDINE CHLORIDE], the GI50 [6] was 14.9 µM (inactive), the GI50 [7] was 1.24 µM (inactive) and the GI50 [1] was 0.745 µM (active). The GI50 [2] was 19.5 µM (inactive), the GI50 [8] was 0.608 µM (active) and the GI50 [3] was 1.27 µM (inactive). The GI50 [9] was 19.8 µM (inactive), the GI50 [4] was 3.37 µM (inactive) and the GI50 [5] was 2.66 µM (inactive).
